The target in assay [1] is T1, Neuropeptide Y receptor type 5 (Homo sapiens, UniProt Q15761).
T1 sequence (Q15761 whole entry): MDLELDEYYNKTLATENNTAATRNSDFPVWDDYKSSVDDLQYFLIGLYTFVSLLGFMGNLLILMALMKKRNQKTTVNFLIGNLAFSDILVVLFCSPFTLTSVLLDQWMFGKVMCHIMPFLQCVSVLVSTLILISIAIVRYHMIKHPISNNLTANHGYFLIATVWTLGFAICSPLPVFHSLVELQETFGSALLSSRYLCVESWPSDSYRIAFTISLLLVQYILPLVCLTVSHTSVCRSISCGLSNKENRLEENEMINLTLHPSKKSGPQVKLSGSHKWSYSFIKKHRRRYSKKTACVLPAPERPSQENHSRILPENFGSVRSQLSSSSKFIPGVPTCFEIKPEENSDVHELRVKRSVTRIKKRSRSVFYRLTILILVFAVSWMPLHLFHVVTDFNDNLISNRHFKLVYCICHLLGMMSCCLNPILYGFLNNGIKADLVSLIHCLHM
The assay can be described thus: Displacement of Cy5-pNPY from human Y5 receptor expressed in human HEC-1B cells after 90 to 120 mins by flow cytometry. Format: cell-based. A general note: A flow cytometer gives signals particle by particle.

Assay [2] deals with T2, Neuropeptide Y receptor type 2 (Homo sapiens, UniProt P49146).
T2 sequence (P49146 whole entry): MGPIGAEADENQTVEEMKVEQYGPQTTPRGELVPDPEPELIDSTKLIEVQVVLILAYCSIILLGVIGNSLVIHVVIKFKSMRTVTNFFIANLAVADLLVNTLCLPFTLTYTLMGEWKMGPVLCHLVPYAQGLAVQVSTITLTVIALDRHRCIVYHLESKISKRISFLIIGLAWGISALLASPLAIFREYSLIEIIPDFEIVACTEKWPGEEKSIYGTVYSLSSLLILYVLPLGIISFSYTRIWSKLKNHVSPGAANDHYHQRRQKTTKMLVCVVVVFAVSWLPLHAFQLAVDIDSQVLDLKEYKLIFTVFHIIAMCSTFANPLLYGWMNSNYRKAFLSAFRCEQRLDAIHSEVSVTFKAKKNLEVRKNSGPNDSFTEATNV
In words: Displacement of Cy5-pNPY from human Y2 receptor expressed in CHO cells after 90 to 120 mins by flow cytometry. Format: cell-based.

In assay [3] the target is T3, Neuropeptide Y receptor type 1 (Homo sapiens, UniProt P25929).
T3 sequence (P25929 whole entry): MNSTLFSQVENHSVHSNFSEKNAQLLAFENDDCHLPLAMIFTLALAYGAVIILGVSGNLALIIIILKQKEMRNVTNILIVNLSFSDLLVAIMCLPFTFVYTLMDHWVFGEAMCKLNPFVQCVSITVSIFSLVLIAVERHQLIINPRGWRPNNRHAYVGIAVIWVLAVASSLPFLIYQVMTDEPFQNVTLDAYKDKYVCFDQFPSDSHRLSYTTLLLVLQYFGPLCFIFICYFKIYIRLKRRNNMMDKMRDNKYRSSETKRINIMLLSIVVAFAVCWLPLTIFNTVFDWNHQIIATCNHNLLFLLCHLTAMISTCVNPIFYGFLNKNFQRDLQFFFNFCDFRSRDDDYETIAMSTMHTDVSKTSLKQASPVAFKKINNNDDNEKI
The assay can be described thus: Displacement of Cy5-pNPY from human Y1 receptor expressed in HEL cells after 90 to 120 mins by flow cytometry. Format: cell-based.

Assay [4] concerns the target T4, Neuropeptide Y receptor type 4 (Homo sapiens, UniProt P50391). The assay can be described thus: Displacement of Cy5-[K4]hPP from human Y4 receptor expressed in CHO cells after 90 to 120 mins by flow cytometry. Format: cell-based.
For assay [5], the target named is T4, Neuropeptide Y receptor type 4. In words: Binding affinity to human Y4 receptor.
For assay [6] the target is unchanged. In words: Agonist activity at human Y4 receptor.
The target of assay [7] is T2, Neuropeptide Y receptor type 2. In words: Binding affinity to human Y2 receptor expressed in human SMS-KAN cells by radioligand binding assay. Format: cell-based.
Assay [8] can be described thus: Binding affinity to rabbit kidney Y2 receptor by radioligand binding assay. Also noted: species or system Oryctolagus cuniculus.
For assay [9], the target named is T2, Neuropeptide Y receptor type 2. The assay can be described thus: Binding affinity to Y2 receptor (unknown origin) expressed in human LN319 cells by radioligand binding assay. The assay is classed as cell-based.
Assay [10] addresses T4, Neuropeptide Y receptor type 4. In words: Agonist activity at human Y4 receptor expressed in sf9 cells assessed as hydrolysis of [gamma-33P]GTP after 2 mins by scintillation counting analysis.

pEC50, pIC50, pKi: −log10 of the molar value. Residues, ends and D or L forms follow the SMILES beside them.

T4 sequence (P50391 whole entry): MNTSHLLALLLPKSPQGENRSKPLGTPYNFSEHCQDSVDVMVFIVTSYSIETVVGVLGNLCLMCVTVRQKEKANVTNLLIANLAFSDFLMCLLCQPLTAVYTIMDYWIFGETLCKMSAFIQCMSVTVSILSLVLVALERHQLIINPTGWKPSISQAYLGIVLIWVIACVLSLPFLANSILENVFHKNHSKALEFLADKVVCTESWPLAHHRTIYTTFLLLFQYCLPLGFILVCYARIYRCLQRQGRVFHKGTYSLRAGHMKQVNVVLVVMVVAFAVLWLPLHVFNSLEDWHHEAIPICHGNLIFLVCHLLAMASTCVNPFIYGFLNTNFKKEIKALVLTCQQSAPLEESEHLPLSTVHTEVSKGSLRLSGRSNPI

The term pKi denotes the Ki on a negative log10 scale, so that one unit is a factor of ten. Usually pEC50 stands for the negative decadic logarithm of the EC50, by convention in mol/L. Take `CC[C@H](C)[C@H](NC(=O)[C@H](CC(C)C)NC(=O)[C@H](CCSC)NC(=O)[C@H](CC(N)=O)NC(=O)[C@@H](NC(=O)[C@H](Cc1ccc(O)cc1)NC(=O)[C@H](CCCNC(=N)N)NC(=O)[C@H](CCCNC(=N)N)NC(=O)[C@H](CC(C)C)NC(=O)[C@H](CC(=O)O)NC(=O)[C@H](C)NC(=O)[C@H](C)NC(=O)[C@H](Cc1ccc(O)cc1)NC(=O)[C@H](CCC(N)=O)NC(=O)[C@H](C)NC(=O)[C@H](CCSC)NC(=O)[C@H](CCC(N)=O)NC(=O)[C@H](CCC(=O)O)NC(=O)[C@@H]1CCCN1C(=O)[C@@H](NC(=O)[C@H](C)NC(=O)[C@H](CC(N)=O)NC(=O)[C@H](CC(=O)O)NC(=O)CNC(=O)[C@@H]1CCCN1C(=O)[C@H](Cc1ccc(O)cc1)NC(=O)[C@@H](NC(=O)[C@@H]1CCCN1C(=O)[C@H](CCC(=O)O)NC(=O)[C@H](CC(C)C)NC(=O)[C@@H]1CCCN1C(=O)[C@H](C)N)C(C)C)[C@@H](C)O)[C@@H](C)O)C(=O)N[C@@H](CCCNC(=N)N)C(=O)N1CCC[C@H]1C(=O)N[C@@H](CCCNC(=N)N)C(=O)N[C@H](N)Cc1ccc(O)cc1` (HELM PEPTIDE1{A.P.L.E.P.V.Y.P.G.D.N.A.T.P.E.Q.M.A.Q.Y.A.A.D.L.R.R.Y.T.N.M.L.I.R.P.R.[N[C@H](Cc1ccc(O)cc1)N[*:1]]}$$$$V2.0): the pKi is 7.77 in assay [1]; under 5.30 in assay [2]; 6.36 in assay [3]; under 6.00 in [4]; 9.28 in assay [5]. For the same compound, the pEC50 in [6] was 7.96.

Broadly, the pIC50 is the negative decadic logarithm of the IC50, by convention in mol/L. A higher pIC50 goes with a small IC50. Consider Ac-RHYINLITRQRY-NH2, for which the pKi in [7] is 8.15; in [8], 7.99; in assay [1], under 6.00; in assay [2], 5.82; in [3], under 6.00; in assay [4] it was under 6.00. This compound had a pIC50 in [9] of 6.88. For the same compound, the pEC50 in assay [10] is 6.28.
